Reference: ChEMBL document CHEMBL1201862, “PubChem BioAssay data set” (2004)
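Method: 48-hour compound exposure of cells in 96-well plates, five concentrations, linear interpolation of endpoints. GI50 = concentration required for 50% inhibition of growth.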 Calls of active or inactive are those of the source. No stated cut-off is given here; in the data, active = GI50 up to about 1.1 µM and inactive = higher.

Assays:
Experiment in all cases: NCI-60 cell line screen, 48 h
HL-60 = test system: HL-60
MOLT-4 = test system: MOLT-4
SK-MEL-5 = test system: SK-MEL-5
SK-MEL-28 = test system: SK-MEL-28
SW-620 = test system: SW-620
MDA-N = test system: MDA-N
NCI-H226 = test system: NCI-H226
HT-29 = test system: HT-29
MCF7 = test system: MCF7
DU-145 = test system: DU-145
HCC 2998 = test system: HCC 2998
IGROV-1 = test system: IGROV-1
MDA-MB-231 = test system: MDA-MB-231
Malme-3M = test system: Malme-3M
ACHN = test system: ACHN
NCI-H460 = test system: NCI-H460
NCI/ADR-RES = test system: NCI/ADR-RES
TK-10 = test system: TK-10

Measured: GI50

O=c1s[s+]([O-])c2ccccc12 (stereo not drawn)
inactive: HL-60 46.9 µM | MOLT-4 > 100 µM | SK-MEL-5 > 100 µM | SK-MEL-28 > 100 µM | SW-620 > 100 µM | MDA-N > 100 µM | NCI-H226 > 100 µM | HT-29 > 100 µM | MCF7 > 100 µM | DU-145 > 100 µM | HCC 2998 > 100 µM | IGROV-1 > 100 µM | MDA-MB-231 > 100 µM | Malme-3M > 100 µM | ACHN > 100 µM | NCI-H460 46.8 µM | NCI/ADR-RES > 100 µM

CCOC(=O)Cc1c(C)c2ccc(OC(C)=O)c(OC(C)=O)c2oc1=O
inactive: MOLT-4 23.6 µM | SK-MEL-5 19.5 µM | SK-MEL-28 21.3 µM | SW-620 20.7 µM | MDA-N > 100 µM | NCI-H226 32.7 µM | HT-29 29.6 µM | MCF7 24.6 µM | DU-145 24.9 µM | IGROV-1 15.3 µM | MDA-MB-231 37.1 µM | Malme-3M 12.3 µM | TK-10 20.9 µM | ACHN 33.8 µM | NCI/ADR-RES 22 µM

COC(=O)c1c[nH]c2nc(N3CCOCC3)nn2c1=O
inactive: HL-60 > 100 µM | MOLT-4 > 100 µM | SK-MEL-5 > 100 µM | SK-MEL-28 > 100 µM | SW-620 > 100 µM | NCI-H226 > 100 µM | HT-29 > 100 µM | HCC 2998 > 100 µM | IGROV-1 1.84 µM | Malme-3M > 100 µM | TK-10 > 100 µM | ACHN > 100 µM | NCI-H460 > 100 µM

CC1(C)C(=O)C=CC2(C)C1CC(O)C1(C)C2CCC2(C)C(c3ccoc3)OC(=O)C3OC321 (stereo not drawn)
inactive: MOLT-4 5.87 µM | SK-MEL-5 6.43 µM | SK-MEL-28 24.8 µM | SW-620 19.8 µM | MDA-N 18.1 µM | NCI-H226 14.2 µM | HT-29 17.1 µM | MCF7 28.8 µM | DU-145 16.4 µM | HCC 2998 13.4 µM | IGROV-1 14.3 µM | MDA-MB-231 15.8 µM | TK-10 16 µM | ACHN 14.1 µM | NCI-H460 13.6 µM | NCI/ADR-RES 14.4 µM

Cc1ccc(C)n1-c1ccccc1C1C=Cn2c3c1c(=O)c(OC(C)C)c(OC(C)C)c-3n[nH]c2=O (stereo not drawn)
inactive: HL-60 5.45 µM | MOLT-4 6.62 µM | SK-MEL-5 5.01 µM | SK-MEL-28 17.5 µM | SW-620 18.3 µM | MDA-N 37.6 µM | NCI-H226 21.4 µM | HT-29 19.9 µM | MCF7 22.2 µM | DU-145 99.3 µM | HCC 2998 23.6 µM | IGROV-1 30.1 µM | MDA-MB-231 33.6 µM | Malme-3M 18.7 µM | TK-10 44 µM | ACHN 45.8 µM | NCI-H460 37.6 µM | NCI/ADR-RES 32.6 µM

CC(C)N(C(=O)C12C3C4C1C1C2C3C41I)C(C)C (stereo not drawn)
inactive: HL-60 > 100 µM | MOLT-4 > 100 µM | SK-MEL-5 > 100 µM | SK-MEL-28 > 100 µM | SW-620 > 100 µM | NCI-H226 > 100 µM | HT-29 > 100 µM | HCC 2998 > 100 µM | IGROV-1 > 100 µM | Malme-3M > 100 µM | TK-10 > 100 µM | ACHN > 100 µM | NCI-H460 > 100 µM

O=C(c1cccc2ccccc12)C1S(=O)(=O)OCCOS1(=O)=O
inactive: HL-60 > 100 µM | MOLT-4 > 100 µM | SK-MEL-5 > 100 µM | SK-MEL-28 > 100 µM | MDA-N > 100 µM | HT-29 > 100 µM | MCF7 > 100 µM | DU-145 > 100 µM | HCC 2998 > 100 µM | MDA-MB-231 > 100 µM | Malme-3M > 100 µM | TK-10 > 100 µM | ACHN > 100 µM | NCI-H460 > 100 µM | NCI/ADR-RES > 100 µM

C/C(=C\Cc1ccc(F)cc1)CCCCCC/C(C)=C/Cc1ccc(F)cc1
inactive: MOLT-4 17.7 µM | SK-MEL-5 12.1 µM | SW-620 17.9 µM | MDA-N 18.5 µM | HT-29 16.1 µM | MCF7 19.3 µM | DU-145 14.2 µM | IGROV-1 4.63 µM | MDA-MB-231 17.9 µM | TK-10 15.5 µM | ACHN 12.2 µM | NCI-H460 4.71 µM | NCI/ADR-RES 11.9 µM

C=CCN(C(=O)OC(C)(C)C)C1=CC2C(C)=CN(S(=O)(=O)c3ccccc3)C2C(OCc2ccccc2)=C1 (stereo not drawn)
inactive: HL-60 > 100 µM | MOLT-4 > 100 µM | SK-MEL-5 > 100 µM | SK-MEL-28 > 100 µM | SW-620 > 100 µM | MDA-N > 100 µM | NCI-H226 > 100 µM | HT-29 13.4 µM | MCF7 > 100 µM | DU-145 > 100 µM | HCC 2998 > 100 µM | IGROV-1 > 100 µM | MDA-MB-231 > 100 µM | Malme-3M > 100 µM | TK-10 > 100 µM | ACHN > 100 µM | NCI-H460 > 100 µM | NCI/ADR-RES > 100 µM

CC1(C)CC(=O)C(=CN2C(=O)CNC2=S)C(=O)C1
inactive: HL-60 > 100 µM | MOLT-4 > 100 µM | SK-MEL-5 > 100 µM | SW-620 > 100 µM | MDA-N > 100 µM | NCI-H226 > 100 µM | MCF7 > 100 µM | DU-145 > 100 µM | HCC 2998 > 100 µM | IGROV-1 > 100 µM | MDA-MB-231 > 100 µM | TK-10 > 100 µM | ACHN > 100 µM | NCI-H460 > 100 µM | NCI/ADR-RES > 100 µM

CCOC(=O)c1[nH]c2ccccc2c1C(=O)C[C@H](NC(=O)C(F)(F)F)C(=O)OC
inactive: HL-60 > 100 µM | MOLT-4 > 100 µM | SK-MEL-5 > 100 µM | SK-MEL-28 > 100 µM | SW-620 > 100 µM | MDA-N > 100 µM | NCI-H226 > 100 µM | HT-29 > 100 µM | MCF7 > 100 µM | DU-145 > 100 µM | HCC 2998 > 100 µM | IGROV-1 > 100 µM | MDA-MB-231 > 100 µM | Malme-3M > 100 µM | TK-10 > 100 µM | ACHN > 100 µM | NCI-H460 29.3 µM | NCI/ADR-RES 84.1 µM

N#C/C(=C\c1cc(Br)c(O)c(Br)c1)c1ccccn1
inactive: HL-60 > 100 µM | MOLT-4 32.5 µM | SK-MEL-5 41 µM | SK-MEL-28 82 µM | SW-620 63.5 µM | MDA-N > 100 µM | NCI-H226 30.4 µM | HT-29 59 µM | MCF7 89.3 µM | DU-145 > 100 µM | HCC 2998 42.9 µM | IGROV-1 > 100 µM | Malme-3M 23.6 µM | TK-10 80.2 µM | ACHN 90.6 µM | NCI-H460 48.6 µM | NCI/ADR-RES 43 µM
